Laboratory results reported in patent US20080312303A1, “Imidazole Derivatives and Their Use for Modulating the Gabaa Receptor Complex” (NeuroSearch A/S, priority 2005, published 2008).

The compounds below were run against benzodiazepine modulatory unit (GABAA receptor complex) (assay: In vitro inhibition of 3H-flunitrazepam (3H-FNM) binding). Details: inhibition of specific binding of 3H-FNM (1 nM); cerebral cortex membranes from male Wistar rats; 40 min at 2° C.
Design: species or system rat
Description: In vitro inhibition of ^3H-flunitrazepam (^3H-FNM) binding
The GABA recognition site and the benzodiazepine modulatory unit can selectively be labelled with ^3H-flunitrazepam.
Preparations are performed at 0-4° C. unless otherwise indicated. Cerebral cortex from male Wistar rats (150-200 g) is homogenised for 5-10 sec in 20 ml Tris-HCl (30 mM, pH 7.4) using an Ultra-Turrax homogeniser. The suspension is centrifuged at 27,000×g for 15 min and the pellet is washed three times with buffer (centrifuged at 27,000×g for 10 min). The washed pellet is homogenized in 20 ml of buffer and incubated on a water bath (37° C.) for 30 min to remove endogenous GABA and then centrifuged for 10 min at 27,000×g. The pellet is then homogenized in buffer and centrifuged for 10 min at 27,000×g. The final pellet is resuspended in 30 ml buffer and the preparation is frozen and stored at −20° C.
The membrane preparation is thawed and centrifuged at 2° C. for 10 min at 27,000×g. The pellet is washed twice with 20 ml 50 mM Tris-citrate, pH 7.1 using an Ultra-Turrax homogeniser and centrifuged for 10 min at 27,000×g. The final pellet is resuspended in 50 mM Tris-citrate, pH 7.1 (500 ml buffer per g of original tissue), and then used for binding assays. Aliquots of 0.5 ml tissue are added to 25 μl of test solution and 25 μl of ^3H-FNM (1 nM, final concentration), mixed and incubated for 40 min at 2° C. Non-specific binding is determined using Clonazepam (1 μM, final concentration). After incubation the samples are added 5 ml of ice-cold buffer and poured directly onto Whatman GF/C glass fibre filters under suction and immediately washed with 5 ml ice-cold buffer. The amount of radioactivity on the filters is determined by conventional liquid scintillation counting. Specific binding is total binding minus non-specific binding.
25-75% inhibition of specific binding must be obtained, before calculation of an IC50.
The test value will be given as IC50 (the concentration (μM) of the test substance which inhibits the specific binding of ^3H-FNM by 50%).

COc1ccc(-c2cn(-c3cccc(-c4ccccc4)c3)cn2)cc1 [1-Biphenyl-3-yl-4-(4-methoxy-phenyl)-1H-imidazole] was tested. Which IC50 did it give?
Its IC50 is 460 nM.

Which IC50 does the source give for N#Cc1cccc(-n2cnc(-c3ccccc3)c2)c1 [3-(4-Phenyl-imidazol-1-yl)-benzonitrile] here?
Its IC50 is 100 nM.

Nc1cccc(-c2cn(-c3cccc(-c4ccccc4)c3)cn2)c1 [1-Biphenyl-3-yl-4-(3-amino-phenyl)-1H-imidazole] was tested. Which IC50 did it give?
Its IC50 is 800 nM.
